Test results: the supplement of paper PMC10307832

How the values were obtained:
Assay in all cases: relative viability (nuclei count vs DMSO), 5 days (fraction); higher = more cells survive
[1] = compound: O=C(C[C@H]1NCCC[C@@H]1O)Cn1cnc2cc(Br)c(Cl)cc2c1=O (racemic) [Halofuginone] + CC(=O)c1c(C)c2cnc(Nc3ccc(N4CCNCC4)cn3)nc2n(C2CCCC2)c1=O [Palbociclib] (partner 0.5 µM)
In short: (§1)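 Lung cancer cell lines were seeded in 1536-well plates and dosed by pin tool the next day, with either a single drug or a fixed anchor-drug dose combined with five library-drug doses (not always all listed) spaced in √10 steps. Five days later, one step fixed the cells and stained their nuclei (final 0.05% Triton X-100, 1% formaldehyde, 1 ug/ml Hoechst), and nuclei were counted on 4× images. Relative viability is the nuclei count in treated wells divided by the count in vehicle wells, and each value is the median of duplicate plates.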

Halofuginone + Olaparib = compound: O=C(C[C@H]1NCCC[C@@H]1O)Cn1cnc2cc(Br)c(Cl)cc2c1=O (racemic) [Halofuginone] + O=C(c1cc(Cc2n[nH]c(=O)c3ccccc23)ccc1F)N1CCN(C(=O)C2CC2)CC1 [Olaparib] (partner 8 µM)
In short: as §1

[2] = compound: O=C(C[C@H]1NCCC[C@@H]1O)Cn1cnc2cc(Br)c(Cl)cc2c1=O (racemic) [Halofuginone] + C[C@@H](Oc1cc(-c2cnn(C3CCNCC3)c2)cnc1N)c1c(Cl)ccc(F)c1Cl [Crizotinib] (partner 1 µM)
In short: as §1

Decitabine + Foretinib = compound: Nc1ncn([C@H]2C[C@H](O)[C@@H](CO)O2)c(=O)n1 [Decitabine] + COc1cc2c(Oc3ccc(NC(=O)C4(C(=O)Nc5ccc(F)cc5)CC4)cc3F)ccnc2cc1OCCCN1CCOCC1 [Foretinib] (partner 0.25 µM)
In short: as §1

| Cell Line | relative viability ([1]; first compound 0.001 µM) | relative viability ([1]; first compound 0.003162 µM) | relative viability ([1]; first compound 0.01 µM) | relative viability ([1]; first compound 0.03162 µM) | relative viability ([1]; first compound 0.1 µM) | relative viability (Halofuginone + Olaparib; first compound 0.001 µM) | relative viability (Halofuginone + Olaparib; first compound 0.003162 µM) | relative viability (Halofuginone + Olaparib; first compound 0.01 µM) | relative viability (Halofuginone + Olaparib; first compound 0.03162 µM) | relative viability (Halofuginone + Olaparib; first compound 0.1 µM) | relative viability ([2]; first compound 0.001 µM) | relative viability ([2]; first compound 0.003162 µM) | relative viability ([2]; first compound 0.01 µM) | relative viability ([2]; first compound 0.03162 µM) | relative viability ([2]; first compound 0.1 µM) | relative viability (Decitabine + Foretinib; first compound 0.04 µM) | relative viability (Decitabine + Foretinib; first compound 0.1265 µM) | relative viability (Decitabine + Foretinib; first compound 0.4 µM) | relative viability (Decitabine + Foretinib; first compound 1.265 µM) | relative viability (Decitabine + Foretinib; first compound 4 µM) |
| --- | --- | --- | --- | --- | --- | --- | --- | --- | --- | --- | --- | --- | --- | --- | --- | --- | --- | --- | --- | --- |
| NCI-H1993 | 0.626 | 0.519 | 0.637 | 0.617 | 0.454 | 0.949 | 0.699 | 1.04 | 1.02 | 0.623 | 1.05 | 0.921 | 0.95 | 0.89 | 0.588 | 0.746 | 0.693 | 0.824 | 0.742 | 0.771 |
| LOU-NH91 | 0.567 | 0.515 | 0.494 | 0.492 | 0.589 | 0.958 | 0.93 | 0.853 | 0.925 | 0.81 | 0.782 | 0.718 | 0.714 | 0.964 | 0.688 | 0.56 | 0.913 | 0.726 | 0.739 | 0.756 |
| SW 900 | 0.626 | 0.483 |  | 0.622 | 0.215 | 0.805 | 0.851 |  | 0.733 | 0.197 |  |  |  |  |  | 0.489 | 0.305 | 0.206 | 0.167 | 0.202 |
| LCLC-103H | 0.492 | 0.491 | 0.462 | 0.467 | 0.523 | 0.794 | 0.779 | 0.778 | 0.747 | 0.737 | 1.09 | 1 | 0.972 | 0.948 | 0.85 | 0.945 | 0.807 | 0.717 | 0.636 | 0.519 |
| NCI-H1915 | 0.571 | 0.514 | 0.523 | 0.472 | 0.422 | 0.225 | 0.247 | 0.241 | 0.26 | 0.237 | 0.897 | 0.954 | 0.813 | 0.894 | 0.73 | 0.534 | 0.396 | 0.326 | 0.314 | 0.326 |
| IA-LM |  |  |  |  |  | 0.848 | 0.913 | 0.768 | 0.656 | 0.305 | 0.845 | 0.899 | 0.768 | 0.384 | 0.0479 | 0.543 | 0.502 | 0.282 | 0.204 | 0.108 |
| NCI-H1734 | 0.338 | 0.361 | 0.33 | 0.32 | 0.2 | 0.632 | 0.621 | 0.6 | 0.584 | 0.22 | 0.738 | 0.718 | 0.67 | 0.659 | 0.277 | 0.765 | 0.685 | 0.651 | 0.474 | 0.339 |
| SK-MES-1 | 0.341 | 0.33 | 0.323 | 0.257 | 0.186 | 0.768 | 0.69 | 0.713 | 0.345 | 0.174 | 1.02 | 1.01 | 0.863 | 0.778 | 0.302 | 0.688 | 0.758 | 0.697 | 0.407 | 0.309 |
| Calu-6 |  |  |  |  |  | 0.611 |  | 0.584 | 0.327 | 0.135 | 0.882 | 0.814 | 0.82 | 0.407 | 0.151 | 0.698 | 0.525 | 0.275 | 0.243 | 0.217 |
| HCC-15 | 0.802 | 0.823 | 0.731 | 0.713 | 0.65 | 0.765 | 0.82 | 0.727 | 0.678 | 0.665 | 0.827 | 0.887 | 0.737 | 0.826 | 0.657 | 0.939 | 0.957 | 0.542 | 0.56 | 0.434 |
| SK-LU-1 | 0.389 | 0.439 | 0.369 | 0.368 | 0.319 | 0.488 | 0.444 | 0.477 | 0.454 | 0.312 | 1.25 | 0.978 | 0.836 | 0.927 | 0.325 | 0.686 | 0.674 | 0.376 | 0.356 | 0.356 |
| NCI-H1395 | 0.645 | 0.589 | 0.542 | 0.553 | 0.458 | 0.462 | 0.469 | 0.471 | 0.433 | 0.388 |  |  |  |  |  | 0.798 | 0.801 | 0.687 | 0.586 | 0.55 |
| NCI-H2342 | 0.503 | 0.578 | 0.511 | 0.512 | 0.527 | 0.644 | 0.431 | 0.413 | 0.431 | 0.427 |  |  |  |  |  | 1.29 | 1.03 | 1.1 | 0.674 | 0.568 |
| NCI-H1793 | 0.271 | 0.348 | 0.292 | 0.335 | 0.196 | 0.988 | 0.852 | 0.814 | 0.902 | 0.294 |  |  |  |  |  | 0.631 | 0.641 | 0.533 | 0.351 | 0.406 |
| NCI-H1299 |  |  |  |  |  | 1 | 1.05 | 0.929 | 0.851 | 0.418 | 1.03 | 1.01 | 0.959 | 0.873 | 0.397 | 1.09 | 1.13 | 1.03 | 1.03 | 1.01 |
| NCI-H522 | 0.861 | 0.756 | 0.829 | 1.04 | 0.95 | 0.621 | 0.665 | 0.631 | 0.672 | 0.628 |  |  |  |  |  |  |  |  |  |  |
| NCI-H1623 |  |  |  |  |  |  |  |  |  |  |  |  |  |  |  | 0.706 | 0.822 | 0.657 | 0.53 | 0.549 |
| NCI-H596 |  |  |  |  |  | 0.756 | 0.737 | 0.655 | 0.752 | 0.549 | 1.23 | 1.05 | 0.941 | 1.01 | 0.666 | 0.764 | 0.819 |  | 0.625 | 0.582 |
| NCI-H1648 | 0.28 | 0.322 | 0.178 | 0.261 | 0.249 | 1.25 | 1.15 | 1.21 | 0.979 | 0.936 |  |  |  |  |  |  |  |  |  |  |
| NCI-H1703 |  |  |  |  |  | 0.495 | 0.483 | 0.482 | 0.289 | 0.2 | 1.04 | 0.583 | 0.538 | 0.592 | 0.28 | 0.371 | 0.341 | 0.455 | 0.377 | 0.271 |
